Results reported in US9029337B2, “Modulation of factor 7 expression” (Isis Pharmaceuticals, Inc., priority 2007, dated 2015).
Strand notation (5' to 3'): a small letter for the sugar, then the base; units joined by * are phosphorothioate-linked, units joined directly phosphodiester-linked; [ ] holds rarer units or linkages, { } end groups; capitals alone tell only the bases. e = 2'-O-(2-methoxyethyl) (MOE); [5mC] = 5-methylcytosine; d = 2'-deoxy (DNA)

What follows are substances tested on human Factor 7 mRNA (assay: Antisense inhibition of human Factor 7 mRNA in HepB3 cells, 50 nM antisense oligonucleotide, lipofectin). Details: Table 1, 50 nM, lipofectin, approximately 24 hours, relative to untreated control cells.
Assay type: cell-based
Experimental: Antisense oligonucleotides targeted to a Factor 7 nucleic acid were tested for their effects on Factor 7 mRNA in vitro. Cultured HepB3 cells at a density of 4,000 cells per well were transfected using lipofectin reagent with 50 nM antisense oligonucleotide. After a treatment period of approximately 24 hours, RNA was isolated from the cells and Factor 7 mRNA levels were measured by real-time RT-PCR, as described herein. Factor 7 mRNA levels were adjusted according to total RNA content as measured by RIBOGREEN®. Results are presented as percent inhibition of Factor 7, relative to untreated control cells.
(§1) Antisense oligonucleotides targeted to a Factor 7 nucleic acid were designed and tested for their effects on Factor 7 mRNA in vitro. Certain antisense oligonucleotides from Table 3 were also retested for their effects on Factor 7 mRNA in vitro. Cultured HepB3 cells at a density of 4,000 cells per well were transfected using lipofectin reagent with 50 nM antisense oligonucleotide. After a treatment period of approximately 24 hours, RNA was isolated from the cells and Factor 7 mRNA levels were measured by real-time RT-PCR, as described herein. Human Factor 7 primer probe set RTS 2927 was used to measure mRNA levels. Factor 7 mRNA levels were adjusted according to total RNA content as measured by RIBOGREEN®. Results are presented as percent inhibition of Factor 7, relative to untreated control.
as §1, with “tested” for “tested for their effects on Factor 7 mRNA in vitro. Certain antisense oligonucleotides from Table 3 were also retested”
These gapmers were designed by creating gapmers shifted slightly upstream and downstream (i.e. “microwalk”) of the original gapmers from Table 7. Gapmers were also created with various motifs, e.g. 5-10-5 MOE, 3-14-3 MOE, and 2-13-5 MOE. These gapmers were tested in vitro. Cultured HepB3 cells at a density of 4,000 cells per well were transfected using lipofectin reagent with 50 nM antisense oligonucleotide. After a treatment period of approximately 24 hours, RNA was isolated from the cells and Factor 7 mRNA levels were measured by real-time RT-PCR. Factor 7 mRNA levels were adjusted according to total RNA content, as measured by RIBOGREEN®. Results are presented as percent inhibition of Factor 7, relative to untreated control cells.

Row | Substance | % Inhibition
1 | 407658 (antisense eG*e[5mC]*eT*eT*eG*d[5mC]*d[5mC]*dG*dG*dA*dG*dT*d[5mC]*dT*dG*eA*eG*eT*eG*eG) [compound 407658] | 16%
2 | 407930 (antisense e[5mC]*eA*eA*eT*eG*dA*dA*dG*dG*d[5mC]*dA*dG*dA*dG*d[5mC]*eA*eG*e[5mC]*eA*eG) [compound 407930] | 70%
3 | 407953 (antisense eA*e[5mC]*eA*eT*e[5mC]*d[5mC]*dA*dA*dT*dT*d[5mC]*d[5mC]*dA*d[5mC]*dA*eG*eG*eA*eT*e[5mC]) [compound 407953] | 20%
4 | 407604 (antisense e[5mC]*eA*e[5mC]*eA*e[5mC]*dT*dG*dG*dT*d[5mC]*d[5mC]*d[5mC]*d[5mC]*dA*dT*e[5mC]*eA*e[5mC]*eT*eG) [compound 407604] | 34%
5 | 407630 (antisense e[5mC]*eA*e[5mC]*eA*eT*dG*dG*dT*d[5mC]*dA*dG*dT*dG*dA*dG*eG*eA*e[5mC]*e[5mC]*eA) [compound 407630] | 29%
6 | 407902 (antisense e[5mC]*eA*e[5mC]*e[5mC]*e[5mC]*dA*dG*dA*dT*dG*dG*dT*dG*dT*dT*eG*eA*eT*e[5mC]*eA) [compound 407902] | 86%
7 | 407934 (antisense e[5mC]*eT*eG*eA*eA*dG*dT*dG*dA*dA*dG*dA*dT*dG*dA*eT*eA*eA*eT*eG) [compound 407934] | 45%
8 | 407922 (antisense eT*e[5mC]*eG*eA*e[5mC]*dG*d[5mC]*dA*dG*d[5mC]*d[5mC]*dT*dT*dG*dG*e[5mC]*eT*eT*eT*e[5mC]) [compound 407922] | 82%
9 | 407958 (antisense eG*e[5mC]*e[5mC]*eG*eT*dG*d[5mC]*dT*dT*dG*d[5mC]*d[5mC]*dG*dG*dA*eG*eT*e[5mC]*eT*eG) [compound 407958] | 58%
10 | 407622 (antisense eT*e[5mC]*eA*e[5mC]*e[5mC]*dA*dA*d[5mC]*dA*dA*d[5mC]*dA*dG*dG*dA*e[5mC]*e[5mC]*eT*eG*e[5mC]) [compound 407622] | 55%
11 | 403090 (antisense eA*eG*eT*e[5mC]*e[5mC]*dT*dG*dG*dG*dT*d[5mC]*dA*dT*d[5mC]*dA*eG*e[5mC]*e[5mC]*eG*eG) [compound 403090] | 69%
12 | 407624 (antisense eG*eA*eG*eA*e[5mC]*d[5mC]*dA*d[5mC]*d[5mC]*d[5mC]*dA*dG*dA*dT*dG*eG*eT*eG*eT*eT) [compound 407624] | 73%
13 | 407943 (antisense eG*e[5mC]*eA*eG*eG*d[5mC]*dA*d[5mC]*d[5mC]*dA*d[5mC]*dA*dG*dG*dT*eG*eT*eG*e[5mC]*eG) [compound 407943] | 34%

Same assay, conditions: Table 6, 50 nM, lipofectin, approximately 24 hours

Row | Substance | % Inhibition
14 | 422120 (antisense e[5mC]*eG*e[5mC]*eG*eG*dA*dA*dG*dA*dA*dG*dG*dG*dA*d[5mC]*eG*eG*eA*eA*eG) [compound 422120] | 40%
15 | 422192 (antisense eG*eA*eG*d[5mC]*dG*d[5mC]*dG*dG*dA*dA*dG*dA*dA*dG*dG*dG*dA*e[5mC]*eG*eG) [compound 422192] | 27%
16 | 422197 (antisense eT*eT*eA*d[5mC]*dT*dG*dA*dG*d[5mC]*dG*d[5mC]*dG*dG*dA*dA*dG*dA*eA*eG*eG) [compound 422197] | 26%

Same assay, conditions: Table 13 (microwalk), 50 nM, lipofectin, approximately 24 hours

Row | Substance | % Inhibition
17 | 422085 (antisense eG*e[5mC]*eA*eT*eG*dG*dT*dG*dA*dT*dG*d[5mC]*dT*dT*d[5mC]*eT*eG*eA*eA*eT) [compound 422085] | 70%

Same assay, conditions: gapmers targeted to nucleobases 4868 to 4899 of SEQ ID NO: 1, Table 8

Row | Substance | % Inhibition of human Factor 7 mRNA levels
18 | 422220 (antisense e[5mC]*e[5mC]*e[5mC]*dG*dA*dG*dT*dT*d[5mC]*dT*dG*d[5mC]*dA*dG*dG*dA*dG*e[5mC]*eG*eG) [compound 422220] | 59%
19 | 422139 (antisense eT*eT*e[5mC]*eT*eG*d[5mC]*dA*dG*dG*dA*dG*d[5mC]*dG*dG*d[5mC]*e[5mC]*eT*eA*eA*eA) [compound 422139] | 66%
20 | 422138 (antisense eT*e[5mC]*eT*eG*e[5mC]*dA*dG*dG*dA*dG*d[5mC]*dG*dG*d[5mC]*d[5mC]*eT*eA*eA*eA*eT) [compound 422138] | 70%

Same assay, conditions: lipofectin, 50 nM antisense oligonucleotide, approximately 24 hours, Factor 7 mRNA by real-time RT-PCR (RTS 2927), relative to untreated control

Row | Substance | % Inhibition
21 | 416521 (antisense e[5mC]*eA*e[5mC]*e[5mC]*e[5mC]*d[5mC]*dA*d[5mC]*d[5mC]*dA*dG*dG*dT*dT*dG*eT*eG*e[5mC]*eA*e[5mC]) [compound 416521] | 36%
22 | 416559 (antisense eG*e[5mC]*e[5mC]*eA*eT*dT*dT*d[5mC]*dT*dA*dG*dG*dT*d[5mC]*dT*eG*e[5mC]*eA*eG*eG) [compound 416559] | 25%
23 | 416490 (antisense eA*e[5mC]*eT*e[5mC]*eA*dG*d[5mC]*dA*dA*dG*dA*dG*dT*dG*d[5mC]*eA*eG*e[5mC]*eT*eT) [compound 416490] | 33%
24 | 416547 (antisense eA*eT*eG*eA*eA*dA*dT*dT*d[5mC]*dT*dA*d[5mC]*d[5mC]*dT*dA*eA*eA*eG*eA*eT) [compound 416547] | 0%
25 | 416494 (antisense e[5mC]*eA*eG*eA*eT*dT*dT*dA*dA*dA*d[5mC]*dT*dG*d[5mC]*dA*eG*eA*eT*eG*eA) [compound 416494] | 0%
26 | 416552 (antisense eT*e[5mC]*eT*eG*e[5mC]*dA*d[5mC]*dA*dG*dG*dG*dT*dA*dG*dA*e[5mC]*e[5mC]*e[5mC]*eT*e[5mC]) [compound 416552] | 46%
27 | 416436 (antisense eA*e[5mC]*eT*eG*eG*dT*d[5mC]*d[5mC]*d[5mC]*d[5mC]*dA*dT*d[5mC]*dA*d[5mC]*eT*eG*eT*eA*eA) [compound 416436] | 27%

Same assay, conditions: oligonucleotides targeted to nucleobases 11830 to 11869 of SEQ ID NO: 1 (Table 9)

Row | Substance | % Inhibition (human Factor 7 mRNA levels)
28 | 422241 (antisense eG*eA*dG*dA*d[5mC]*dA*dA*dT*dG*dG*dT*d[5mC]*dA*dG*dG*eG*e[5mC]*eT*eG*eG) [compound 422241] | 61%
29 | 422098 (antisense eG*eG*eA*eG*eA*d[5mC]*dA*dA*dT*dG*dG*dT*d[5mC]*dA*dG*eG*eG*e[5mC]*eT*eG) [compound 422098] | 53%
30 | 422170 (antisense eG*e[5mC]*eT*dG*dA*dG*dG*dA*dG*dA*d[5mC]*dA*dA*dT*dG*dG*dT*e[5mC]*eA*eG) [compound 422170] | 28%

Same assay, conditions: oligonucleotides targeted to nucleobases 13760 to 13789 of SEQ ID NO: 1 (Table 10)

Row | Substance | % Inhibition (human Factor 7 mRNA levels)
31 | 422184 (antisense eT*eG*e[5mC]*dG*d[5mC]*d[5mC]*dA*d[5mC]*d[5mC]*d[5mC]*dG*d[5mC]*d[5mC]*dG*dG*d[5mC]*dT*e[5mC]*eT*eG) [compound 422184] | 55%
32 | 422111 (antisense e[5mC]*eA*e[5mC]*e[5mC]*e[5mC]*dG*d[5mC]*d[5mC]*dG*dG*d[5mC]*dT*d[5mC]*dT*dG*e[5mC]*eT*e[5mC]*eA*eT) [compound 422111] | 37%
33 | 422112 (antisense e[5mC]*e[5mC]*eA*e[5mC]*e[5mC]*d[5mC]*dG*d[5mC]*d[5mC]*dG*dG*d[5mC]*dT*d[5mC]*dT*eG*e[5mC]*eT*e[5mC]*eA) [compound 422112] | 61%

Same assay, conditions: oligonucleotides targeted to nucleobases 15098 to 15122 of SEQ ID NO: 1 (Table 12)

Row | Substance | % Inhibition (human Factor 7 mRNA levels)
34 | 422136 (antisense e[5mC]*eA*eG*e[5mC]*eA*d[5mC]*dA*d[5mC]*dA*dT*dG*dG*dA*dG*dT*e[5mC]*eA*eG*e[5mC]*eA) [compound 422136] | 57%
35 | 422286 (antisense eA*eG*d[5mC]*dA*d[5mC]*dA*d[5mC]*dA*dT*dG*dG*dA*dG*dT*d[5mC]*eA*eG*e[5mC]*eA*eT) [compound 422286] | 53%
